Results taken from patent publication US11214803B2, “Modulators of YAP1 expression” (Ionis Pharmaceuticals, Inc., priority 2019, dated 2022).
Strand notation (5' to 3'): a small letter for the sugar, then the base; units joined by * are phosphorothioate-linked, units joined directly phosphodiester-linked; [ ] holds rarer units or linkages, { } end groups; capitals alone tell only the bases. k = constrained ethyl (cEt); [5mC] = 5-methylcytosine; d = 2'-deoxy (DNA)

Test system: Yap1 mRNA
Assay: Antisense inhibition of human Yap1 in A-431 cells by cEt gapmers, single dose (Example 2, RTS4814)
Type: cell-based
Description: Modified oligonucleotides were designed to target a Yap1 nucleic acid and were tested for their effect on Yap1 mRNA level in vitro. The modified oligonucleotides were tested in a series of experiments that had similar culture conditions. Cultured A-431 cells at a density of 5,000 cells per well were treated using free uptake with 2,000 nM of modified oligonucleotide. After a treatment period of approximately 48 hours, RNA was isolated from the cells and Yap1 mRNA levels were measured by quantitative real-time RTPCR. Human primer probe set RTS4814 was used to measure mRNA levels. Yap1 mRNA levels were normalized to total RNA content, as measured by RIBOGREEN®. Results are presented in the tables below as percent control of the amount of Yap1 mRNA relative to untreated control cells (% UTC). The modified oligonucleotides with percent control values marked with an asterisk (*) target the amplicon region of the primer probe set. Additional assays may be used to measure the potency and efficacy of the modified oligonucleotides targeting the amplicon region.
The newly designed modified oligonucleotides in the Tables below were designed as 3-10-3 cEt gapmers. The gapmers are 16 nucleosides in length, wherein the central gap segment comprises of ten 2′-deoxynucleosides and is flanked by wing segments on the 5′ direction and the 3′ direction comprising three nucleosides each. Each nucleoside in the 5′ wing segment and each nucleoside in the 3′ wing segment has a cEt sugar modification. The internucleoside linkages throughout each gapmer are phosphorothioate (P═S) linkages. All cytosine residues throughout each gapmer are 5-methylcytosines.
“Start site” indicates the 5′-most nucleoside to which the gapmer is targeted in the human gene sequence. “Stop site” indicates the 3′-most nucleoside to which the gapmer is targeted human gene sequence. […] Activity ofthe modified oligonucleotide may be defined in a different experiment.

[1] = Table 25, Yap1 mRNA as percent of untreated control, 3-10-3 cEt gapmers targeting SEQ ID NO.: 1, and 2
[2] = Table 33, Yap1 mRNA, percent of untreated control, 3-10-3 cEt gapmers targeting SEQ ID NO.: 1, and 2
[3] = Table 24, Yap1 mRNA as percent of untreated control, 3-10-3 cEt gapmers targeting SEQ ID NO.: 1, and 2
[4] = Table 32, Yap1 mRNA, percent of untreated control, 3-10-3 cEt gapmers targeting SEQ ID NO.: 1, and 2
[5] = Yap1 mRNA as percent of untreated control, A-431 cells, 3-10-3 cEt gapmers targeting SEQ ID NO.: 1, and 2, Table 30
[6] = A-431 cells, 5,000 cells per well, free uptake, 2,000 nM modified oligonucleotide, approx. 48 hours, RTS4814, normalized to RIBOGREEN, Table 4, asterisk (*) = targets amplicon region of primer probe set
[7] = Table 21, Yap1 mRNA, percent of untreated control, 3-10-3 cEt gapmers targeting SEQ ID NO.: 1 and 2
[8] = Table 6, A-431 cells, 5,000 cells per well, free uptake, 2,000 nM modified oligonucleotide, approx. 48 hours, RTS4814, normalized to RIBOGREEN, Yap1 mRNA relative to untreated control cells
[9] = Table 20, Yap1 mRNA, percent of untreated control, 3-10-3 cEt gapmers targeting SEQ ID NO.: 1 and 2
[10] = Table 19, A-431 cells, 5,000 cells per well, free uptake, 2,000 nM modified oligonucleotide, approx. 48 hours, RTS4814, normalized to RIBOGREEN, Yap1 mRNA as percent of untreated control
[11] = Yap1 mRNA as percent of untreated control, A-431 cells, 3-10-3 cEt gapmers targeting SEQ ID NO.: 1, and 2, Table 31

1074443 (kT*k[5mC]*kA*dG*dA*d[5mC]*d[5mC]*dA*dG*dT*dA*dA*dA*kT*k[5mC]*kA; antisense) [Compound 1074443]
YAP1 (% UTC) [1]: 7 % UTC

1076147 (kA*kT*kT*dA*dA*d[5mC]*dT*d[5mC]*dA*d[5mC]*dG*dA*dA*kG*kA*k[5mC]; antisense) [compound 1076147]
YAP1 (% UTC) [2]: 25 % UTC

1076010 (kT*kA*kT*dA*dA*dA*d[5mC]*dA*dA*dT*dA*dG*d[5mC]*kG*kA*kA; antisense) [Compound 1076010]
YAP1 (% UTC) [3]: 44 % UTC

1075627 (kA*kT*kA*dA*dG*dA*dT*dA*dG*dT*d[5mC]*dG*dG*kT*kT*k[5mC]; antisense) [Compound 1075627]
YAP1 (% UTC) [1]: 19 % UTC

1076267 (kA*kT*kT*dT*dA*dA*dG*dG*dT*dG*d[5mC]*dA*dT*kA*kA*kG; antisense) [Compound 1076267]
YAP1 (% UTC) [1]: 13 % UTC

1074930 (antisense k[5mC]*kT*kA*dT*dA*d[5mC]*dA*dA*d[5mC]*dA*dG*dG*d[5mC]*k[5mC]*kT*kG) [compound 1074930]
YAP1 (% UTC) [4]: 84 % UTC

1076328 (kA*k[5mC]*kT*dG*dA*dA*d[5mC]*d[5mC]*dG*d[5mC]*dT*dG*d[5mC]*k[5mC]*kT*k[5mC]; antisense) [Compound 1076328]
YAP1 (% UTC) (Table 22, Yap1 mRNA as percent of untreated control, 3-10-3 cEt gapmers, single dose): 33 % UTC

1076400 (antisense kG*kT*kT*dA*dA*dA*dA*dG*d[5mC]*d[5mC]*dG*dT*dG*kA*kA*kA) [compound 1076400]
YAP1 (% UTC) [5]: 10 % UTC

716430 (kT*kA*kA*d[5mC]*dT*dG*dG*dG*d[5mC]*dA*dA*dA*dA*kG*kG*kA; antisense) [Compound 716430]
YAP1 (% UTC) [6]: 28 % UTC

1075347 (antisense k[5mC]*kA*kT*dA*dG*dG*dT*dA*dG*dG*d[5mC]*dA*dA*k[5mC]*kA*kA) [compound 1075347]
YAP1 (% UTC) [2]: 20 % UTC

1076551 (antisense kG*kT*kG*dG*dA*dA*dT*dA*dG*d[5mC]*dA*dG*d[5mC]*k[5mC]*kA*kT) [Compound 1076551]
YAP1 (% UTC) [7]: 67 % UTC

716465 (kG*k[5mC]*kT*d[5mC]*dT*dT*dT*d[5mC]*dT*dA*dG*dA*dA*k[5mC]*kA*k[5mC]; antisense) [Compound 716465]
YAP1 (% UTC) [8]: 82 % UTC

716477 (kG*kT*kG*dT*dT*d[5mC]*dA*dT*dT*dA*d[5mC]*dA*dA*kA*kT*kG; antisense) [Compound 716477]
YAP1 (% UTC) [8]: 42 % UTC

1075114 (antisense kG*kT*kA*dT*dA*dA*dA*dT*dA*d[5mC]*d[5mC]*dA*dG*kG*kT*kA) [Compound 1075114]
YAP1 (% UTC) [3]: 26 % UTC

1075728 (k[5mC]*kT*kT*dT*dA*dT*d[5mC]*dG*dG*dA*dG*dG*d[5mC]*kT*kT*k[5mC]; antisense) [compound 1075728]
YAP1 (% UTC) [5]: 15 % UTC

1075110 (antisense kG*kA*k[5mC]*dT*dA*dA*dA*dA*dA*d[5mC]*dA*dT*dT*kG*kT*kG) [Compound 1075110]
YAP1 (% UTC) [9]: 120 % UTC

716526 (antisense kT*k[5mC]*kA*dA*dA*dG*d[5mC]*dA*d[5mC]*dT*dG*dT*dG*k[5mC]*k[5mC]*kA) [Compound 716526]
YAP1 (% UTC) [6]: 88 % UTC

1074757 (kA*kG*kT*dT*dA*dA*dG*d[5mC]*dA*d[5mC]*dT*dT*dT*kT*kA*k[5mC]; antisense) [Compound 1074757]
YAP1 (% UTC) [10]: 21 % UTC

1074898 (antisense kA*kA*k[5mC]*dT*dT*dT*dT*dG*dG*dG*d[5mC]*dA*dA*kA*kG*kT) [compound 1074898]
YAP1 (% UTC) [4]: 101 % UTC

1076100 (kA*kA*kT*dA*dA*dG*dG*dG*dA*d[5mC]*dT*dA*d[5mC]*kT*kT*kT; antisense) [Compound 1076100]
YAP1 (% UTC) (Table 18, A-431 cells, 5,000 cells per well, free uptake, 2,000 nM modified oligonucleotide, approx. 48 hours, RTS4814, normalized to RIBOGREEN, Yap1 mRNA as percent of untreated control): 65 % UTC

1075302 (k[5mC]*k[5mC]*kT*dT*dA*dA*dA*dG*d[5mC]*dT*dT*d[5mC]*d[5mC]*kA*k[5mC]*k[5mC]; antisense) [Compound 1075302]
YAP1 (% UTC) [9]: 75 % UTC

716395 (kG*k[5mC]*k[5mC]*dG*d[5mC]*dA*dG*d[5mC]*d[5mC]*dT*d[5mC]*dT*d[5mC]*k[5mC]*kT*kT; antisense) [Compound 716395]
YAP1 (% UTC) (Table 5, A-431 cells, 5,000 cells per well, free uptake, 2,000 nM modified oligonucleotide, approx. 48 hours, RTS4814, normalized to RIBOGREEN, Yap1 mRNA relative to untreated control cells): 92 % UTC

1075120 (kA*kA*kT*dT*dA*dG*d[5mC]*d[5mC]*dT*dA*d[5mC]*d[5mC]*dA*k[5mC]*k[5mC]*kT; antisense) [compound 1075120]
YAP1 (% UTC) [5]: 42 % UTC

1075883 (kA*k[5mC]*kT*dA*dA*dA*dA*d[5mC]*d[5mC]*dA*dT*dT*dT*kG*k[5mC]*k[5mC]; antisense) [Compound 1075883]
YAP1 (% UTC) [1]: 20 % UTC

1074311 (antisense kT*kT*k[5mC]*d[5mC]*dG*d[5mC]*dA*dT*dT*dG*d[5mC]*d[5mC]*dT*kG*kT*kG) [Compound 1074311]
YAP1 (% UTC) [7]: 24 % UTC

1074673 (antisense kA*kG*kG*d[5mC]*dA*d[5mC]*dT*d[5mC]*d[5mC]*dT*dT*d[5mC]*d[5mC]*kA*kA*kG) [compound 1074673]
YAP1 (% UTC) [11]: 43 % UTC

1076209 (k[5mC]*kA*kT*dT*dA*dG*d[5mC]*dA*d[5mC]*dA*d[5mC]*d[5mC]*dT*kT*kT*kT; antisense) [compound 1076209]
YAP1 (% UTC) [11]: 12 % UTC

716471 (k[5mC]*k[5mC]*kT*dA*d[5mC]*dT*d[5mC]*dA*d[5mC]*dT*dG*dA*dA*kT*kT*k[5mC]; antisense) [Compound 716471]
YAP1 (% UTC) [8]: 48 % UTC

1074245 (antisense kA*kG*kA*dA*dG*dT*dA*dT*d[5mC]*dT*d[5mC]*dT*dG*kA*k[5mC]*k[5mC]) [Compound 1074245]
YAP1 (% UTC) [10]: 5 % UTC

1076434 (k[5mC]*kT*kT*dT*dA*dG*dG*dT*dT*dT*dA*dT*dG*k[5mC]*k[5mC]*kT; antisense) [compound 1076434]
YAP1 (% UTC) [4]: 25 % UTC

1075731 (k[5mC]*k[5mC]*k[5mC]*d[5mC]*dA*dA*dT*dA*dT*dT*dA*dT*d[5mC]*kT*kA*k[5mC]; antisense) [compound 1075731]
YAP1 (% UTC) [2]: 40 % UTC

1075047 (antisense kT*kA*kA*dA*dA*dT*dT*dA*dG*dA*d[5mC]*dT*d[5mC]*k[5mC]*k[5mC]*k[5mC]) [Compound 1075047]
YAP1 (% UTC) [7]: 7 % UTC

1074277 (antisense kG*kT*k[5mC]*dT*dA*dG*d[5mC]*d[5mC]*dA*dA*dG*dA*dG*kG*kT*kG) [Compound 1074277]
YAP1 (% UTC) [10]: 18 % UTC

1075474 (kT*kT*kT*dA*dA*dT*dA*dG*dG*d[5mC]*dT*d[5mC]*dT*kA*kT*k[5mC]; antisense) [compound 1075474]
YAP1 (% UTC) [4]: 68 % UTC

1076241 (k[5mC]*kA*kA*dT*dA*dA*dG*dG*dA*dA*d[5mC]*dA*dG*kT*kT*kT; antisense) [compound 1076241]
YAP1 (% UTC) [11]: 42 % UTC

716358 (k[5mC]*kG*kA*dG*dG*dG*d[5mC]*dT*dA*d[5mC]*dG*d[5mC]*d[5mC]*k[5mC]*kG*kG; antisense) [Compound 716358]
YAP1 (% UTC) [6]: 104 % UTC

1074704 (antisense k[5mC]*kA*k[5mC]*dG*dG*dT*dG*dT*dA*dA*dG*dA*d[5mC]*kA*kA*kG) [compound 1074704]
YAP1 (% UTC) [5]: 16 % UTC

1075495 (antisense k[5mC]*kT*kT*dA*dA*dT*dT*dG*dG*dT*dA*dA*d[5mC]*kT*kG*kA) [Compound 1075495]
YAP1 (% UTC) [7]: 19 % UTC

1075152 (kT*kA*kT*dA*dA*dT*dG*dG*dG*dA*dG*dG*dA*kT*kT*kA; antisense) [compound 1075152]
YAP1 (% UTC) [5]: 99 % UTC

1074384 (kT*kT*k[5mC]*dA*dA*dG*dG*dT*dA*dG*dT*d[5mC]*dT*kG*kG*kG; antisense) [compound 1074384]
YAP1 (% UTC) [5]: 35 % UTC
